Assays:
Format in all cases: in vivo
[1] = tested on: lambsquarters (Chenopodium album, CHEAL); assay: Post-emerge test, greenhouse herbicide activity screening; conditions: post-emerge, 14 days after application, rating scale 0-100
Procedure, shortened: (§1)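 Visual ratings on a 0-100 scale (0 no damage, 100 all plants dead) were taken at 14 days after treatment. Rates of 15-1000 g ai/ha in acetone, 187 l/ha, were sprayed onto soil one day after planting (pre-emerge) or onto 2-3 leaf plants with 0.25% v/v surfactant (post-emerge).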

[2] = tested on: velvetleaf (Abutilon theophrasti, ABUTH); assay: as above; conditions: post-emerge, 14 days after application, rating scale 0-100
Procedure, shortened: as §1

[3] = tested on: ivyleaf morningglory (Ipomoea hederacea, IPOHE); assay: as above; conditions: post-emerge, 14 days after application, rating scale 0-100
Procedure, shortened: as §1

[4] = tested on: common ragweed (Ambrosia artemisizfolia L., AMBEL); assay: as above; conditions: post-emerge, 14 days after application, rating scale 0-100
Procedure, shortened: as §1

[5] = tested on: barnyardgrass (Echinochloa crus-galli, ECHCG); assay: as above; conditions: post-emerge, 14 days after application, rating scale 0-100
Procedure, shortened: as §1

[6] = tested on: large crabgrass (Digitaria sanguinalis, DIGSA); assay: as above; conditions: post-emerge, 14 days after application, rating scale 0-100
Procedure, shortened: as §1

[7] = tested on: redroot pigweed (Amaranthus retroflexus, AMARE); assay: as above; conditions: post-emerge, 14 days after application, rating scale 0-100
Procedure, shortened: as §1

[8] = tested on: green foxtail (Setaria viridis, SETVI); assay: as above; conditions: post-emerge, 14 days after application, rating scale 0-100
Procedure, shortened: as §1

[9] = tested on: sicklepod (Cassia obtusifolia, CASOB); assay: as above; conditions: post-emerge, 14 days after application, rating scale 0-100
Procedure, shortened: as §1

[10] = tested on: johnsongrass (Sorghum halepense, SORHA); assay: as above; conditions: post-emerge, 14 days after application, rating scale 0-100
Procedure, shortened: as §1

[11] = tested on: redroot pigweed (Amaranthus retroflexus, AMARE); assay: Pre-emerge test, greenhouse herbicide activity screening; conditions: rated 14 days after application, 0 = no damage, 100 = complete death
Procedure, shortened: as §1

[12] = tested on: lambsquarters (Chenopodium album, CHEAL); assay: as above; conditions: rated 14 days after application, 0 = no damage, 100 = complete death
Procedure, shortened: (§2)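 Herbicidal damage is scored 0 (none) to 100 (complete plant death) two weeks after a simulated field spray. Rates span 15–1000 g ai/ha, delivered in acetone at 187 l/ha. For post-emergence treatments, plants have 2–3 leaves and the spray carries 0.25% v/v non-ionic surfactant.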

[13] = tested on: velvetleaf (Abutilon theophrasti, ABUTH); assay: as above; conditions: rated 14 days after application, 0 = no damage, 100 = complete death
Procedure, shortened: as §2

[14] = tested on: ivyleaf morningglory (Ipomoea hederacea, IPOHE); assay: as above; conditions: rated 14 days after application, 0 = no damage, 100 = complete death
Procedure, shortened: as §2

[15] = tested on: common ragweed (Ambrosia artemisizfolia L., AMBEL); assay: as above; conditions: rated 14 days after application, 0 = no damage, 100 = complete death
Procedure, shortened: as §2

[16] = tested on: barnyardgrass (Echinochloa crus-galli, ECHCG); assay: as above; conditions: rated 14 days after application, 0 = no damage, 100 = complete death
Procedure, shortened: as §2

[17] = tested on: large crabgrass (Digitaria sanguinalis, DIGSA); assay: as above; conditions: rated 14 days after application, 0 = no damage, 100 = complete death
Procedure, shortened: as §2

[18] = tested on: green foxtail (Setaria viridis, SETVI); assay: as above; conditions: rated 14 days after application, 0 = no damage, 100 = complete death
Procedure, shortened: as §2

[19] = tested on: sicklepod (Cassia obtusifolia, CASOB); assay: as above; conditions: rated 14 days after application, 0 = no damage, 100 = complete death
Procedure, shortened: as §2

[20] = tested on: johnsongrass (Sorghum halepense, SORHA); assay: as above; conditions: rated 14 days after application, 0 = no damage, 100 = complete death
Procedure, shortened: as §2

[21] = tested on: field corn (Zea mays L., var. Dekalb 535, CORN); assay: Pre-emerge test, crop safety; conditions: rated 14 days after application, 0 = no damage, 100 = complete death
Procedure, shortened: (§3)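 Compounds in acetone were track-sprayed at 15-1000 g ai/ha (187 l/ha) on sandy loam pots: pre-emerge one day after seeding, post-emerge at 2-3 leaf stage with 0.25% v/v non-ionic surfactant. Phytotoxicity was rated 14 days later on a 0 (no damage) to 100 (complete death) scale.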

[22] = tested on: upland rice (Oryza sp., var. Tebonnet, RICE); assay: Pre-emerge test, crop safety; conditions: rated 14 days after application, 0 = no damage, 100 = complete death
Procedure, shortened: as §3

[23] = tested on: field corn (Zea mays L., var. Dekalb 535, CORN); assay: Post-emerge test, crop safety; conditions: post-emerge, 14 days after application, rating scale 0-100
Procedure, shortened: as §2

[24] = tested on: upland rice (Oryza sp., var. Tebonnet, RICE); assay: Post-emerge test, crop safety; conditions: post-emerge, 14 days after application, rating scale 0-100
Procedure, shortened: as §2

COc1c(Cl)cc(F)c(-n2c(=O)cc(C(F)(F)F)n(N)c2=O)c1NC(=O)c1ccc(F)cc1F [2-44]
20: phytotoxicity rating CASOB ([9]; 63 g ai/ha) | Pre-emerge phytotoxicity rating (0-100), crop damage, RICE ([22]; 63 g ai/ha) | phytotoxicity rating CORN ([23]; 250 g ai/ha)
30: phytotoxicity rating SORHA ([10]; 250 g ai/ha) | Pre-emerge Herbicidal Activity, phytotoxicity rating (0-100), ECHCG ([16]; 63 g ai/ha)
70: phytotoxicity rating CASOB ([9]; 250 g ai/ha) | Pre-emerge phytotoxicity rating (0-100), crop damage, CORN ([21]; 250 g ai/ha)
80: Pre-emerge phytotoxicity rating (0-100), crop damage, RICE ([22]; 250 g ai/ha)
50: phytotoxicity rating IPOHE ([3]; 63 g ai/ha) | phytotoxicity rating AMARE ([7]; 63 g ai/ha) | phytotoxicity rating SETVI ([8]; 250 g ai/ha) | Pre-emerge Herbicidal Activity, phytotoxicity rating (0-100), SORHA ([20]; 63 g ai/ha)
10: phytotoxicity rating ECHCG ([5]; 250 g ai/ha) | phytotoxicity rating DIGSA ([6]; 250 g ai/ha) | Pre-emerge phytotoxicity rating (0-100), crop damage, CORN ([21]; 63 g ai/ha) | phytotoxicity rating RICE ([24]; 250 g ai/ha)
60: phytotoxicity rating CHEAL ([1]; 63 g ai/ha) | phytotoxicity rating AMBEL ([4]; 63 g ai/ha) | Pre-emerge Herbicidal Activity, phytotoxicity rating (0-100), DIGSA ([17]; 63 g ai/ha) | Pre-emerge Herbicidal Activity, phytotoxicity rating (0-100), CASOB ([19]; 63 g ai/ha)
0: phytotoxicity rating ECHCG ([5]; 63 g ai/ha) | phytotoxicity rating DIGSA ([6]; 63 g ai/ha) | phytotoxicity rating SETVI ([8]; 63 g ai/ha) | phytotoxicity rating SORHA ([10]; 63 g ai/ha) | phytotoxicity rating CORN ([23]; 63 g ai/ha) | phytotoxicity rating RICE ([24]; 63 g ai/ha)
99: Pre-emerge Herbicidal Activity, phytotoxicity rating (0-100), ECHCG ([16]; 250 g ai/ha)
90: phytotoxicity rating CHEAL ([1]; 250 g ai/ha) | phytotoxicity rating AMBEL ([4]; 250 g ai/ha) | phytotoxicity rating AMARE ([7]; 250 g ai/ha) | Pre-emerge Herbicidal Activity, phytotoxicity rating (0-100), IPOHE ([14]; 63 g ai/ha) | Pre-emerge Herbicidal Activity, phytotoxicity rating (0-100), SETVI ([18]; 63 g ai/ha)
95: Pre-emerge Herbicidal Activity, phytotoxicity rating (0-100), SORHA ([20]; 250 g ai/ha)
100: phytotoxicity rating ABUTH ([2]; 63 g ai/ha) | phytotoxicity rating ABUTH ([2]; 250 g ai/ha) | phytotoxicity rating IPOHE ([3]; 250 g ai/ha) | Pre-emerge Herbicidal Activity, phytotoxicity rating (0-100), AMARE ([11]; 63 g ai/ha) | Pre-emerge Herbicidal Activity, phytotoxicity rating (0-100), AMARE ([11]; 250 g ai/ha) | Pre-emerge Herbicidal Activity, phytotoxicity rating (0-100), CHEAL ([12]; 63 g ai/ha) | Pre-emerge Herbicidal Activity, phytotoxicity rating (0-100), CHEAL ([12]; 250 g ai/ha) | Pre-emerge Herbicidal Activity, phytotoxicity rating (0-100), ABUTH ([13]; 63 g ai/ha) | Pre-emerge Herbicidal Activity, phytotoxicity rating (0-100), ABUTH ([13]; 250 g ai/ha) | Pre-emerge Herbicidal Activity, phytotoxicity rating (0-100), IPOHE ([14]; 250 g ai/ha) | Pre-emerge Herbicidal Activity, phytotoxicity rating (0-100), AMBEL ([15]; 63 g ai/ha) | Pre-emerge Herbicidal Activity, phytotoxicity rating (0-100), AMBEL ([15]; 250 g ai/ha) | Pre-emerge Herbicidal Activity, phytotoxicity rating (0-100), DIGSA ([17]; 250 g ai/ha) | Pre-emerge Herbicidal Activity, phytotoxicity rating (0-100), SETVI ([18]; 250 g ai/ha) | Pre-emerge Herbicidal Activity, phytotoxicity rating (0-100), CASOB ([19]; 250 g ai/ha)

— patent US6355799B1, “Substituted benzene compounds, process for their preparation, and herbicidal and defoliant compositions containing them” (ISK Americas Incorporated, priority 1997, dated 2002)
